Laboratory results published in article PMC10707724, “Dual Effects of 3-epi-betulin from Daphniphyllum glaucescens in Suppressing SARS-CoV-2-Induced Inflammation and Inhibiting Virus Entry” (International Journal of Molecular Sciences, 2023).

Legend:
[1] = tested on: SARS-CoV-2 virus spike binding to ACE2; settings: by computational screening; cited from earlier work
[2] = tested on: pro-inflammatory genes (IL1B, IL6) in differentiated THP-1 cells; assay type: cell-based
SARS-CoV-2 replicon = experiment: microbe, parasite or virus in culture; assay type: cell-based; settings: Severe acute respiratory syndrome coronavirus 2, HEK-293T, read-out: EC50, replication of SARS-CoV-2 replicon (luciferase activity)
[3] = tested on: pro-inflammatory genes, IL6 and TNF, in Calu-3 cells; assay type: cell-based
[4] = tested on: SARS-CoV-2 (hCoV-19/Taiwan/NTU49/2020); assay type: cell-based; settings: Calu-3, 10 μM for 24 h after infection
[5] = tested on: SARS-CoV-2 (hCoV-19/Taiwan/NTU49/2020); experiment: microbe, parasite or virus in culture; assay type: cell-based
[6] = tested on: wild-type SARS-CoV-2 pseudovirus SEMpv; experiment: microbe, parasite or virus in culture; assay type: cell-based; settings: Severe acute respiratory syndrome-related coronavirus, BHK-ACE2, 48 h, read-out: EC50, pseudovirus entry
[7] = tested on: wild-type SARS-CoV-2 pseudovirus Spv; experiment: microbe, parasite or virus in culture; assay type: cell-based; settings: Severe acute respiratory syndrome-related coronavirus, BHK-ACE2, 48 h, read-out: EC50, pseudovirus entry
VSV-pseudovirus (Gpv) = assay type: cell-based
[8] = tested on: SARS-CoV-2 Alpha (B.1.1.7); experiment: microbe, parasite or virus in culture; assay type: cell-based; settings: Severe acute respiratory syndrome coronavirus 2, Vero C1008, Alpha (B.1.1.7)
[9] = tested on: SARS-CoV-2 Eplison (B.1.429); experiment: microbe, parasite or virus in culture; assay type: cell-based; settings: Severe acute respiratory syndrome coronavirus 2, Vero C1008, Eplison (B.1.429)
SARS-CoV-2 Gamma (P1) = experiment: microbe, parasite or virus in culture; assay type: cell-based; settings: Severe acute respiratory syndrome coronavirus 2, Vero C1008, Gamma (P1)
[10] = tested on: SARS-CoV-2 Delta (B.1.617.2); experiment: microbe, parasite or virus in culture; assay type: cell-based; settings: Severe acute respiratory syndrome coronavirus 2, Vero C1008, Delta (B.1.617.2)
[11] = tested on: SARS-CoV-2 Omicron (BA.1); experiment: microbe, parasite or virus in culture; assay type: cell-based; settings: Severe acute respiratory syndrome coronavirus 2, Vero C1008
SARS-CoV-2 pseudoviruses = assay type: cell-based; settings: pseudovirus pre-treated with compound 37 °C 1 h, BHK-ACE2 48 h, luciferase
BHK-ACE2 cells = settings: BHK-ACE2, 48 h, MTS
spike protein = settings: cited from earlier work
[12] = compound given after pseudovirus infection, 16 h (time-of-addition study)

**Q.** Which “inhibition of spike binding to ACE2 through the RBD domain” value [1] does the source give for `C=C(C)[C@@H]1CC[C@]2(C(=O)O)CC[C@]3(C)[C@H](CC[C@@H]4[C@@]5(C)CC[C@H](O)C(C)(C)[C@@H]5CC[C@]43C)[C@@H]12` [Betulinic acid] here?
**A.** The value was “inhibit SARS-CoV-2 virus spike binding to ACE2”.

**Q.** Which results are given for `C=C(C)[C@@H]1CC[C@]2(CO)CC[C@]3(C)[C@H](CC[C@@H]4[C@@]5(C)CC[C@@H](O)C(C)(C)[C@@H]5CC[C@]43C)[C@@H]12` [Compound 5, 3-epi-Betulin]?
**A.** decrease in IL1B expression [2, 12]: 69.5%; decrease in IL6 expression [2, 12]: 82.9%; expression of pro-inflammatory genes, pre-inoculation ([2]; compound mixed with pseudovirus 1 h before infecting differentiated THP-1 cells): remained unchanged; expression of pro-inflammatory genes, pre-treatment ([2]; compound on differentiated THP-1 cells 1 h before pseudovirus infection): remained unchanged; IL1B RNA level decrease ([2]; differentiated THP-1 infected with SEMpv, then compound for 16 h): 47.3%; EC50 (SARS-CoV-2 replicon): 11.7 ± 0.4 µM; IL6 expression decrease [3]: 66.6%; TNF expression decrease [3]: 46.0%; minus-stranded viral RNA decrease [4]: 51.7%; plus-stranded viral RNA reduction [4]: 73.8%; culture supernatant viral load decrease ([4]; RT-qPCR): 61.4%; plaque formation decline ([4]; plaque assay of supernatant): 51.5%; EC50 ([5]; Severe acute respiratory syndrome coronavirus 2, Calu-3 lung epithelial cells, read-out: EC50, SARS-CoV-2 infection): < 20 µM; intracellular viral RNA decrease ([5]; virus pre-incubated with 20 μM, Calu-3, 24 h): 45.6%; infectious virus titer decrease ([5]; virus pre-incubated with 20 μM, Calu-3, 24 h, plaque assay): 66.3%; EC50 [6]: 14.6 µM; EC50 [7]: 16.3 µM; inhibitory activity against control VSV-pseudovirus (VSV-pseudovirus (Gpv)): no inhibitory activity; EC50 [8]: 10.3 µM; EC50 [9]: 12.9 µM; EC50 (SARS-CoV-2 Gamma (P1)): 3.27 µM; EC50 [10]: 3.09 µM; EC50 [11]: 14.5 ± 3.9 µM; inhibitory activity for virus entry (SARS-CoV-2 pseudoviruses): highest inhibitory activity; cytotoxicity (BHK-ACE2 cells): no cytotoxicity

**Q.** Which “ability to bind to the spike protein” value (spike protein) does the source give for `C=C(C)[C@@H]1CC[C@]2(CO)CC[C@]3(C)[C@H](CC[C@@H]4[C@@]5(C)CC[C@H](O)C(C)(C)[C@@H]5CC[C@]43C)[C@@H]12` [Compound 7, Betulin] here?
**A.** Its value is “ability to bind to the spike protein”.
